Source: US20230093099A1, “COMPOUNDS AND METHODS OF TREATING CANCERS” (CULLGEN (SHANGHAI), INC., priority 2019, published 2023)

Test system: RS4;11 cells
Assay: Cell viability assay (CellTiter-Glo) in RS4;11 cells
Assay type: cell-based
Details: Homo sapiens, 72 h; RS4;11 ALL cells treated for three days; read-out: cell viability inhibition IC50
In short: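 RS4;11 cells seeded at 5000 per well, exposed for 3 days to 8- or 12-point 3-fold serial dilutions. Viability read by CellTiter-Glo luminescence; IC50 fitted by nonlinear least-squares regression.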

`Cc1cnc(Nc2ccc(N3CCN(CC(=O)NCCCCCNc4cccc5c4C(=O)N(C4CCC(=O)NC4=O)C5=O)CC3)cc2)nc1Nc1cccc(S(=O)(=O)NC(C)(C)C)c1` (centres unmarked) [JA-093, 2-(4-(4-((4-((3-(N-(tert-butyl)sulfamoyl)phenyl)amino)-5-methylpyrimidin-2-yl)amino)phenyl)piperazin-1-yl)-N-(5-((2-(2,6-dioxopiperidin-3-yl)-1,3-dioxoisoindolin-4-yl)amino)pentyl)acetamide] and `CS(=O)(=O)c1ccc(-c2cccc3nc(Nc4ccc(N5CCN(CC(=O)NCCCCCCCNc6ccc7c(c6)C(=O)N(C6CCC(=O)NC6=O)C7=O)CC5)cc4)nn23)cc1` (centres unmarked) [JA-214] cannot be ordered by IC50: less than 100 nM for the first, less than 100 nM for the second.

Same assay, conditions: Homo sapiens, 72 h; RS4;11 cells; cell viability, 3 days, CellTiter-Glo; read-out: IC50

Compared with `CS(=O)(=O)c1ccc(-c2cccc3nc(Nc4ccc(N5CCN(CC(=O)NCCOCCOCCOCCOCCOCCNc6cccc7c6C(=O)N(C6CCC(=O)NC6=O)C7=O)CC5)cc4)nn23)cc1` (centres unmarked) [JA-129, N-(17-((2-(2,6-Dioxopiperidin-3-yl)-1,3-dioxoisoindolin-4-yl)amino)-3,6,9,12,15-pentaoxaheptadecyl)-2-(4-(4-((5-(4-(methylsulfonyl)phenyl)-[1,2,4]triazolo[1,5-a]pyridin-2-yl)amino)phenyl)piperazin-1-yl)acetamide], `CS(=O)(=O)c1ccc(-c2cccc3nc(Nc4ccc(N5CCN(CC(=O)NCCCCCCCNc6ccc7c(c6)C(=O)N(C6CCC(=O)NC6=O)C7=O)CC5)cc4)nn23)cc1` (centres unmarked) [JA-214] is lower in IC50: greater than 10000 nM for the first, 63.5 nM for the second.

Going from `CS(=O)(=O)c1ccc(-c2cccc3nc(Nc4ccc(N5CCN(C(=O)CCCCCCn6c(=O)n(C7CCC(=O)NC7=O)c7ccccc76)CC5)cc4)nn23)cc1` (centres unmarked) [JA-281, 3-(3-(7-(4-(4-((5-(4-(Methylsulfonyl)phenyl)-[1,2,4]triazolo[1,5-a]pyridin-2-yl)amino)phenyl)piperazin-1-yl)-7-oxoheptyl)-2-oxo-2,3-dihydro-1H-benzo[d]imidazol-1-yl)piperidine-2,6-dione] to `CS(=O)(=O)c1ccc(-c2cccc3nc(Nc4ccc(N5CCN(C(=O)CCCCCCc6ccc7c(c6)C(=O)N(C6CCC(=O)NC6=O)C7)CC5)cc4)nn23)cc1` (centres unmarked) [JA-268, 3-(6-(7-(4-(4-((5-(4-(methylsulfonyl)phenyl)-[1,2,4]triazolo[1,5-a]pyridin-2-yl)amino)phenyl)piperazin-1-yl)-7-oxoheptyl)-1-oxoisoindolin-2-yl)piperidine-2,6-dione], the IC50 falls from greater than 500 nM to 5.4 nM. The second is the more potent here.

Compared with `Cc1cnc(Nc2ccc(N3CCN(CC(=O)NCCCCCNc4cccc5c4C(=O)N(C4CCC(=O)NC4=O)C5=O)CC3)cc2)nc1Nc1cccc(S(=O)(=O)NC(C)(C)C)c1` (centres unmarked) [JA-093, 2-(4-(4-((4-((3-(N-(tert-butyl)sulfamoyl)phenyl)amino)-5-methylpyrimidin-2-yl)amino)phenyl)piperazin-1-yl)-N-(5-((2-(2,6-dioxopiperidin-3-yl)-1,3-dioxoisoindolin-4-yl)amino)pentyl)acetamide], `Cc1cnc(Nc2ccc(N3CCN(C(=O)CCNc4cccc5c4C(=O)N(C4CCC(=O)NC4=O)C5=O)CC3)cc2)nc1Nc1cccc(S(=O)(=O)NC(C)(C)C)c1` (centres unmarked) [JA-009, N-(tert-Butyl)-3-((2-((4-(4-(3-((2-(2,6-dioxopiperidin-3-yl)-1,3-dioxoisoindolin-4-yl)amino)propanoyl)piperazin-1-yl)phenyl)amino)-5-methylpyrimidin-4-yl)amino)benzenesulfonamide] is 35-fold higher in IC50: 73.3 nM for the first, 2580 nM for the second.

`O=C(CN1CCC(n2cc(-c3cnc4cccc(-c5cc(F)c(CN6CCOCC6)c(F)c5)c4n3)cn2)CC1)NCCCCCCNc1cccc2c1C(=O)N(C1CCC(=O)NC1=O)C2=O` (centres unmarked) [JA-147, 2-(4-(4-(8-(3,5-Difluoro-4-(morpholinomethyl)phenyl)quinoxalin-2-yl)-1H-pyrazol-1-yl)piperidin-1-yl)-N-(6-((2-(2,6-dioxopiperidin-3-yl)-1,3-dioxoisoindolin-4-yl)amino)hexyl)acetamide] and `O=C(CN1CCC(n2cc(-c3cnc4cccc(-c5cc(F)c(CN6CCOCC6)c(F)c5)c4n3)cn2)CC1)NCCCCNc1cccc2c1C(=O)N(C1CCC(=O)NC1=O)C2=O` (centres unmarked) [JA-146, 2-(4-(4-(8-(3,5-Difluoro-4-(morpholinomethyl)phenyl)quinoxalin-2-yl)-1H-pyrazol-1-yl)piperidin-1-yl)-N-(4-((2-(2,6-dioxopiperidin-3-yl)-1,3-dioxoisoindolin-4-yl)amino)butyl)acetamide] cannot be ordered by IC50: greater than 10000 nM for the first, greater than 10000 nM for the second.

`Cc1cnc(Nc2ccc(N3CCN(C(=O)CCCCCCCCC(=O)N[C@H](C(=O)N4C[C@H](O)C[C@H]4C(=O)NCc4ccc(-c5scnc5C)cc4)C(C)(C)C)CC3)cc2)nc1Nc1cccc(S(=O)(=O)NC(C)(C)C)c1` [JA-028, (2S,4R)-1-((S)-2-(10-(4-(4-((4-((3-(N-(tert-Butyl)sulfamoyl)phenyl)amino)-5-methylpyrimidin-2-yl)amino)phenyl)piperazin-1-yl)-10-oxodecanamido)-3,3-dimethylbutanoyl)-4-hydroxy-N-(4-(4-methylthiazol-5-yl)benzyl)pyrrolidine-2-carboxamide] and `Cc1cnc(Nc2ccc(N3CCN(C(=O)CCCC(=O)N[C@H](C(=O)N4C[C@H](O)C[C@H]4C(=O)NCc4ccc(-c5scnc5C)cc4)C(C)(C)C)CC3)cc2)nc1Nc1cccc(S(=O)(=O)NC(C)(C)C)c1` [JA-023, (2S,4R)-1-((S)-2-(5-(4-(4-((4-((3-(N-(tert-Butyl)sulfamoyl)phenyl)amino)-5-methylpyrimidin-2-yl)amino)phenyl)piperazin-1-yl)-5-oxopentanamido)-3,3-dimethylbutanoyl)-4-hydroxy-N-(4-(4-methylthiazol-5-yl)benzyl)pyrrolidine-2-carboxamide] cannot be ordered by IC50: greater than 10000 nM for the first, greater than 10000 nM for the second.

Going from `Cc1cnc(Nc2ccc(N3CCN(CC(=O)NCCOCCOCCOCCOCCOCCC(=O)N[C@H](C(=O)N4C[C@H](O)C[C@H]4C(=O)NCc4ccc(-c5scnc5C)cc4)C(C)(C)C)CC3)cc2)nc1Nc1cccc(S(=O)(=O)NC(C)(C)C)c1` [JA-223, (2S,4R)-1-((S)-23-(tert-butyl)-1-(4-(4-((4-((3-(N-(tert-butyl)sulfamoyl)phenyl)amino)-5-methylpyrimidin-2-yl)amino)phenyl)piperazin-1-yl)-2,21-dioxo-6,9,12,15,18-pentaoxa-3,22-diazatetracosan-24-oyl)-4-hydroxy-N-(4-(4-methylthiazol-5-yl)benzyl)pyrrolidine-2-carboxamide] to `Cc1cnc(Nc2ccc(N3CCN(C(=O)CCOCCOCCOCCOCCOCCNc4cccc5c4C(=O)N(C4CCC(=O)NC4=O)C5=O)CC3)cc2)nc1Nc1cccc(S(=O)(=O)NC(C)(C)C)c1` (centres unmarked) [JA-021], the IC50 falls from 9380 nM to 940 nM (10-fold). The second is the more potent here.

Going from `Cc1cnc(Nc2ccc(N3CCN(C(=O)CCOCCOCCOCCNc4ccc5c(c4)C(=O)N(C4CCC(=O)NC4=O)C5=O)CC3)cc2)nc1Nc1cccc(S(=O)(=O)NC(C)(C)C)c1` (centres unmarked) [JA-234, N-(tert-butyl)-3-((2-((4-(4-(3-(2-(2-(2-((2-(2,6-dioxopiperidin-3-yl)-1,3-dioxoisoindolin-5-yl)amino)ethoxy)ethoxy)ethoxy)propanoyl)piperazin-1-yl)phenyl)amino)-5-methylpyrimidin-4-yl)amino)benzenesulfonamide] to `Cc1cnc(Nc2ccc(N3CCN(CC(=O)NCCOCCNc4ccc5c(c4)C(=O)N(C4CCC(=O)NC4=O)C5=O)CC3)cc2)nc1Nc1cccc(S(=O)(=O)NC(C)(C)C)c1` (centres unmarked) [JA-237, 2-(4-(4-((4-((3-(N-(tert-butyl)sulfamoyl)phenyl)amino)-5-methylpyrimidin-2-yl)amino)phenyl)piperazin-1-yl)-N-(2-(2-((2-(2,6-dioxopiperidin-3-yl)-1,3-dioxoisoindolin-5-yl)amino)ethoxy)ethyl)acetamide], the IC50 rises from 1590 nM to greater than 10000 nM. The first is the more potent here.

With `Cc1ncsc1-c1ccc(CNC(=O)[C@@H]2C[C@@H](O)CN2C(=O)[C@@H](NC(=O)CCCCCCCNC(=O)CN2CCC(n3cc(-c4cnc5cccc(-c6cc(F)c(CN7CCOCC7)c(F)c6)c5n4)cn3)CC2)C(C)(C)C)cc1` [JA-156, (2S,4R)-1-((S)-2-(8-(2-(4-(4-(8-(3,5-Difluoro-4-(morpholinomethyl)phenyl)quinoxalin-2-yl)-1H-pyrazol-1-yl)piperidin-1-yl)acetamido)octanamido)-3,3-dimethylbutanoyl)-4-hydroxy-N-(4-(4-methylthiazol-5-yl)benzyl)pyrrolidine-2-carboxamide] the IC50 was 3660 nM.
